Assay [1] has as its target T1, Potassium voltage-gated channel subfamily A member 5 (Homo sapiens, UniProt P22460). Briefly: Inhibition of human Kv1.5 channel expressed in Xenopus oocytes at 3 uM by EP voltage clamp technique. The settings on record: Oocyte. Format: cell-based.
For assay [2], the target named is T1, Potassium voltage-gated channel subfamily A member 5. The experiment in a line: Inhibition of human Kv1.5 channel expressed in mouse L929 cells by EP voltage clamp technique. Format: cell-based.

Data on 53 compounds can be found in ChEMBL document CHEMBL1152205, “Dihydropyrazolopyrimidine inhibitors of K(V)1.5 (I(Kur))” (Bioorg Med Chem Lett, 2008).

By inhibition is commonly meant the change of the read-out against control, counted positive when it falls. Broadly, the IC50 is the point on the concentration scale where inhibition reaches its midpoint. Higher therefore signals lower potency.

T1 sequence (P22460 whole entry): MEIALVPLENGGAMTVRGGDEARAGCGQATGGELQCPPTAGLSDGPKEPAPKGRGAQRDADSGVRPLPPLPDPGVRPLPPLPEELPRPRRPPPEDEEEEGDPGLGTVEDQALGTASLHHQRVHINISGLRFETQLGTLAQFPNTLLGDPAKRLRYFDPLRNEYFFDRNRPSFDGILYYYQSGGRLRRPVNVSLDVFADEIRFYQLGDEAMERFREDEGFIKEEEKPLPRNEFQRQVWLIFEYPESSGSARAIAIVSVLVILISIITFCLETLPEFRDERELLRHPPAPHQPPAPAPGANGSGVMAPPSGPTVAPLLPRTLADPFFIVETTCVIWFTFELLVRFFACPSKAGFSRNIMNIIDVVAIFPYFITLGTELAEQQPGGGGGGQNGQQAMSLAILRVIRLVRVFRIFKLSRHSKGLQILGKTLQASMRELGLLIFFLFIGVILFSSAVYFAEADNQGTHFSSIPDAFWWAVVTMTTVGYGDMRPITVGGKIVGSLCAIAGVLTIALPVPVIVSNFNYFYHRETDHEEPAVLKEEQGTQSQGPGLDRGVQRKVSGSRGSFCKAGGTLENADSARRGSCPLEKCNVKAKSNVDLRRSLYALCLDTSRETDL

Regarding `CC1=C(C(=O)N2CCN(c3ccc(F)cc3)CC2)C(c2cccc([N+](=O)[O-])c2)n2nccc2N1` (stereo not drawn), in assay [1], the inhibition worked out at 15%.

`CC1=C(C(=O)N2CCC(c3ccccc3)CC2)C(c2ccc(Cl)c(Cl)c2)n2nccc2N1` (stereo not drawn) had an IC50 in assay [2] of 159 nM. In assay [1], this compound gave an inhibition of 59%.

Compound `CCCNC(=O)C1=C(C)Nc2ccnn2C1c1ccc(Cl)c(Cl)c1` (stereo not drawn) displayed an IC50 in assay [2] of 490 nM.

As for `CC1=C(C(=O)N2CCN(c3ccc(F)cc3)CC2)C(c2cc(Cl)ccc2Cl)n2nccc2N1` (stereo not drawn), half-maximal inhibition in assay [2] (IC50) was put at 820 nM. Also, the inhibition in assay [1] came to 41%.

As for `CCCCCN(CCCCC)C(=O)C1=C(C)Nc2ccnn2C1c1ccc(Cl)c(Cl)c1` (stereo not drawn), the midpoint of inhibition in assay [2], the IC50, lay at 580 nM. In addition, the inhibition in assay [1] stood at 69%.

`COC[C@H]1CCCN1C(=O)C1=C(C)Nc2ccnn2C1c1ccc(Cl)c(Cl)c1` (stereo partly drawn) had an inhibition in assay [1] of 39%.

`CCCCNC(=O)C1=C(C)Nc2ccnn2C1c1ccc(Cl)c(Cl)c1` (stereo not drawn) gave an IC50 in assay [2] of 440 nM. Further, the inhibition in assay [1] was 56%.

Regarding `Cc1nc2ccnn2c(-c2cccc(Cl)c2Cl)c1C(=O)N1CCN(c2ccc(F)cc2)CC1`, the inhibition in assay [1] is 17%.

`CC1=C(C(=O)N2CCN(c3ccc(F)cc3)CC2)C(c2ccccn2)n2nccc2N1` (stereo not drawn) came in with an inhibition in assay [1] of 3%.

In turn, `COC[C@@H]1CCCN1C(=O)C1=C(C)Nc2ccnn2C1c1ccc(Cl)c(Cl)c1` (stereo partly drawn) returned a half-maximal inhibitory concentration (IC50) in assay [2] of 200 nM. In assay [1], this compound had an inhibition of 88%.

`CC1=C(C(=O)N2CCN(C3CCCCC3)CC2)C(c2ccc(Cl)c(Cl)c2)n2nccc2N1` (stereo not drawn): in assay [1], the inhibition turned out to be 17%.

The compound `CC1=C(C(=O)N2CCN(c3ccc(F)cc3)CC2)C(c2ccccc2[N+](=O)[O-])n2nccc2N1` (stereo not drawn) displayed an inhibition in assay [1] of 4%.

In the case of `CC1=C(C(=O)N2CCN(c3ccc(F)cc3)CC2)C(c2ccco2)n2nccc2N1` (stereo not drawn), in assay [1], the inhibition is 1%.

In assay [1], `CC1=C(C(=O)N2CCN(c3ccc(F)cc3)CC2)C(c2cccc(C#N)c2)n2nccc2N1` (stereo not drawn) displayed an inhibition of 11%.

Consider `CC1=C(C(=O)N2CCN(c3ccc(F)cc3)CC2)C(c2ccc(Cl)cc2)n2nccc2N1` (stereo not drawn), for which, in assay [2], half-maximal inhibition (IC50) was put at 440 nM. The same compound showed an inhibition in assay [1] of 42%.

In assay [1], `CC1=C(C(=O)N2CCN(c3ccc(F)cc3)CC2)C(c2cccnc2)n2nccc2N1` (stereo not drawn) gave an inhibition of 3%.

For the compound `CC1=C(C(=O)N2CCCCCC2)C(c2ccc(Cl)c(Cl)c2)n2nccc2N1` (stereo not drawn), in assay [2], the IC50 came to 190 nM. Moreover, in assay [1], the inhibition came to 90%.

With `CC1=C(C(=O)N2CCN(c3ccc(F)cc3)CC2)[C@H](c2ccc(Cl)c(Cl)c2)n2nccc2N1`, the inhibition in assay [1] came out at 19%.

`CC1=C(C(=O)N2CCN(c3ccc(F)cc3)CC2)C(c2ccc3c(c2)OCO3)n2nccc2N1` (stereo not drawn): the inhibition in assay [1] was found to be 26%.

The compound `CC1=C(C(=O)N2CCCCC2)C(c2ccc(Cl)c(Cl)c2)n2nccc2N1` (stereo not drawn) yielded an IC50 in assay [2] of 90 nM. This compound registered an inhibition in assay [1] of 77%.

Regarding `CC1=C(C(=O)N2CCN(c3ccc(F)cc3)CC2)C(c2cc(Cl)cc(Cl)c2)n2nccc2N1` (stereo not drawn), 140 nM corresponded to half-maximal inhibition in assay [2] (IC50). For the same compound, the inhibition in assay [1] was determined as 62%.

In turn, `CC1=C(C(=O)N2CCN(c3ccc(F)cc3)CC2)C(c2cccc(Cl)c2Cl)n2nccc2N1` (stereo not drawn) showed an IC50 in assay [2] of 160 nM. In assay [1], this compound yielded an inhibition of 72%.

`CC1=C(C(=O)N2CCN(c3ccc(F)cc3)CC2)C(c2cccs2)n2nccc2N1` (stereo not drawn) returned an inhibition in assay [1] of 7%.

In assay [2], `CC1=C(C(=O)NCc2ccccc2)C(c2ccc(Cl)c(Cl)c2)n2nccc2N1` (stereo not drawn) displayed an IC50 of 160 nM. The compound also returned an inhibition in assay [1] of 62%.

For `CC1=C(C(=O)N2CCN(c3ccc(F)cc3)CC2)C(c2ccc(Cl)cc2Cl)n2nccc2N1` (stereo not drawn), the IC50 in assay [2] stood at 280 nM. In assay [1], the inhibition worked out at 50%.

In assay [2], `CC1=C(C(=O)N2CCN(c3ccc(F)cc3)CC2)C(c2cc(C)cc(C)c2)n2nccc2N1` (stereo not drawn) displayed an IC50 of 420 nM. Moreover, the inhibition in assay [1] came to 58%.

On to `CC1=C(C(=O)N2CCN(c3ccc(F)cc3)CC2)C(c2ccc(C)s2)n2nccc2N1` (stereo not drawn), for which the inhibition in assay [1] was 1%.

The compound `CC1=C(C(=O)N2CCN(c3ccc(F)cc3)CC2)C(c2cnc3ccccc3c2)n2nccc2N1` (stereo not drawn) showed an inhibition in assay [1] of 17%.

Compound `COc1ccc(C2C(C(=O)N3CCN(c4ccc(F)cc4)CC3)=C(C)Nc3ccnn32)cc1OC` (stereo not drawn) yielded an inhibition in assay [1] of 1%.

For the compound `CCCCN(CCCC)C(=O)C1=C(C)Nc2ccnn2C1c1ccc(Cl)c(Cl)c1` (stereo not drawn), in assay [2], inhibition was half-maximal at 310 nM (IC50). In assay [1], this compound returned an inhibition of 45%.

Turning to `COc1ccc(C2C(C(=O)N3CCN(c4ccc(F)cc4)CC3)=C(C)Nc3ccnn32)cc1` (stereo not drawn), the inhibition in assay [1] is 11%.

For the compound `CC1=C(C(=O)N2CCN(c3ccc(F)cc3)CC2)C(c2ccc3ccccc3n2)n2nccc2N1` (stereo not drawn), in assay [1], the inhibition came to 29%.

On to `CC1=C(C(=O)N2CCC2)C(c2ccc(Cl)c(Cl)c2)n2nccc2N1` (stereo not drawn), for which inhibition in assay [2] was half-maximal at 970 nM (IC50). The compound also came in with an inhibition in assay [1] of 52%.

As to `COc1cccc(C2C(C(=O)N3CCN(c4ccc(F)cc4)CC3)=C(C)Nc3ccnn32)c1` (stereo not drawn), the inhibition in assay [1] was found to be 30%.

Consider `Cc1nc2ccnn2c(-c2ccc(Cl)c(Cl)c2)c1C(=O)N1CCCCC1`, for which, in assay [1], the inhibition was found to be 17%.

For `CC1=C(C(=O)N2CCN(C)CC2)C(c2ccc(Cl)c(Cl)c2)n2nccc2N1` (stereo not drawn), the inhibition in assay [1] is 5%.

For the compound `CC1=C(C(=O)N2CCN(c3ccc(F)cc3)CC2)C(c2cccc(Cl)c2)n2nccc2N1` (stereo not drawn), 190 nM corresponded to half-maximal inhibition in assay [2] (IC50). Besides, the inhibition in assay [1] worked out at 68%.

For `CC1=C(C(=O)N2CCN(c3ccc(F)cc3)CC2)C(c2cccc3c2OCO3)n2nccc2N1` (stereo not drawn), the inhibition in assay [1] was determined as 18%.

With `CC1=C(C(=O)N2CCN(c3ccc(F)cc3)CC2)C(c2cc3ccccc3o2)n2nccc2N1` (stereo not drawn), the midpoint of inhibition in assay [2], the IC50, lay at 160 nM. The inhibition in assay [1] stood at 33%.

For the compound `CC1=C(C(=O)N2CCN(c3ccc(F)cc3)CC2)C(c2ccc(C)c(C)c2)n2nccc2N1` (stereo not drawn), half-maximal inhibition in assay [2] (IC50) required 750 nM. For the same compound, the inhibition in assay [1] stood at 34%.

As to `CC1=C(C(=O)N2CCCC2)C(c2ccc(Cl)c(Cl)c2)n2nccc2N1` (stereo not drawn), the IC50 in assay [2] worked out at 660 nM. The compound also displayed an inhibition in assay [1] of 67%.

As to `CC1=C(C(=O)N2CCN(c3ccc(F)cc3)CC2)C(c2ccc3ccccc3c2)n2nccc2N1` (stereo not drawn), the IC50 in assay [2] amounted to 650 nM. In assay [1], this compound showed an inhibition of 39%.

For `CC1=C(C(=O)N2CCN(c3ccc(F)cc3)CC2)C(c2ccc([N+](=O)[O-])cc2)n2nccc2N1` (stereo not drawn), in assay [1], the inhibition was determined as 24%.

Compound `CC1=C(C(=O)N2CCN(c3ccc(F)cc3)CC2)C(c2ccccc2Cl)n2nccc2N1` (stereo not drawn) gave an inhibition in assay [1] of 30%.

As to `CC1=C(C(=O)N2CCN(c3ccc(F)cc3)CC2)[C@H](c2cccc(Cl)c2Cl)n2nccc2N1`, in assay [1], the inhibition came out at 2%.

With `CC1=C(C(=O)N2CCN(c3ccc(F)cc3)CC2)C(c2ccccc2)n2nccc2N1` (stereo not drawn), in assay [1], the inhibition came to 24%.

With `CC1=C(C(=O)N2CCN(c3ccc(F)cc3)CC2)C(c2ccc(C#N)cc2)n2nccc2N1` (stereo not drawn), the inhibition in assay [1] stood at 14%.

The compound `CC1=C(C(=O)N2CCN(c3ccc(F)cc3)CC2)C(c2ccc(C)cc2)n2nccc2N1` (stereo not drawn) yielded an inhibition in assay [1] of 27%.

`CC1=C(C(=O)N2CCN(c3ccc(F)cc3)CC2)C(c2sccc2C)n2nccc2N1` (stereo not drawn) showed an inhibition in assay [1] of 29%.

With `COc1ccccc1C1C(C(=O)N2CCN(c3ccc(F)cc3)CC2)=C(C)Nc2ccnn21` (stereo not drawn), the inhibition in assay [1] is 2%.

As to `CC1=C(C(=O)N2CCOCC2)C(c2ccc(Cl)c(Cl)c2)n2nccc2N1` (stereo not drawn), the inhibition in assay [1] came out at 17%.

`CC1=C(C(=O)N2CCN(c3ccc(F)cc3)CC2)C(c2ccc(C)o2)n2nccc2N1` (stereo not drawn) yielded an inhibition in assay [1] of 7%.

Compound `COc1cccc(C2C(C(=O)N3CCN(c4ccc(F)cc4)CC3)=C(C)Nc3ccnn32)c1OC` (stereo not drawn) came in with an inhibition in assay [1] of 7%.
